Like-named read-outs stand apart in the source and are kept apart here.
Experiments:
Test in all cases: Thermal protein profiling (TPP) in intact HEK293 cells
Assay type in all cases: cell-based
Settings in all cases: 1 h
TRIM26 = biological target: T1, TRIM26 (Homo sapiens, UniProt Q12899)
T1 construct: endogenous in cells; host or cells: HEK293
T1 sequence (Q12899 1-539): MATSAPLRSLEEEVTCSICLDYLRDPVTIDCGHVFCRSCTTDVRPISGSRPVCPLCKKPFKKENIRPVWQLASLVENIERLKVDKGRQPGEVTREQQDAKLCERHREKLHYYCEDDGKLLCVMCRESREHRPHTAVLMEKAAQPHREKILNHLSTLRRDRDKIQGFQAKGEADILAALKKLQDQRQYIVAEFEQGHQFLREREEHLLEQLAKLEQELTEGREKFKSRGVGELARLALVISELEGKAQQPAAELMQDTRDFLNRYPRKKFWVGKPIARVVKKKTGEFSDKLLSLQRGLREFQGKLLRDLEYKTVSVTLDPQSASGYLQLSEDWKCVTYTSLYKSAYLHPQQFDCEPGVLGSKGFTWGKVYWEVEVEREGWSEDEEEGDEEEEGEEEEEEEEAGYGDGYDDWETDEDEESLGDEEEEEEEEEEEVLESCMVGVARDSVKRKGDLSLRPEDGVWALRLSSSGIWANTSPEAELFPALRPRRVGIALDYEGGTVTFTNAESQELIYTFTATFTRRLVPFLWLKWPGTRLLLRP
Experimental: (§1) incubated in a thermoshaker (600 rpm, 16 h, 37 °C). The digest was stopped by adding 10 μL formic
(§2) acid (FA) and vortexing followed by centrifugation (12,000 ×g, 3 min, room temperature). 50 mg
(§3) SepPak C18 columns (Waters, Milford, USA, Cat# WAT054960) were equilibrated by gravity flow two
(§4) times with 1 mL acetonitrile and three times with 1 mL aqueous 0.1% trifluoroacetic acid (TFA) solution.
(§5) Subsequently, the samples were loaded by gravity flow, washed three times with 1 mL aqueous 0.1%
(§6) TFA solution and once with 0.5 mL aqueous 0.5% formic acid (F A) solution. Elution of peptides into
(§7) new 2.0 mL Protein LoBind Eppendorf tubes was performed by two times addition of 250 μL elution
(§8) buffer (80% acetonitrile, 0.5% FA) by gravity flow followed by 250 μL elution buffer by vacuum flow
(§9) until all liquid was eluted from the column. The eluates were lyophilized. Before MS measurement the
(§10) (brief centrifugation after each step).
(§11) Thermal protein profiling (TPP)
(§12) The experiment was performed similarly to TPP-TR experiments described by Franken et al. with minor
(§13) modifications.5 HEK293 cells were grown in 8 T175 flasks to approx. 80-90% confluency. Per replicate
(§14) volume of 0.1 N HCl as vehicle control. Per condition two replicates were used, leading to a total of 8
(§15) T175 flasks. The cells were washed with PBS, detached with accutase, the two flask per replicate
(§16) condition combined and the cells pelletized (500 ×g, 3 min, r.t.). The medium was removed and each
(§17) pellet (Cipro #1, Cipro #2, Ctrl. #1, Ctrl #2) washed twice with cold PBS. Each pellet was resuspended
(§18) depending on the sample. The cell suspension of each sample was distributed into 10 PCR tubes
(§19) (100 µL per tube), resulting in 10 stripes á 4 tubes (2×2 conditions, 10 temperature points). The PCR
(§20) tubes were subjected to the temperature gradient using a PCR cycler.
(§21) limitations, two separate programs had to be run to cover the desired temperature range (see
(§22) Table S4). The PCR tubes were heat-treated according to the two programs for 3 min and directly snap
(§23) frozen in liquid nitrogen.
(§24) manufacturer instructions.

ADAL = biological target: T2, ADAL (Homo sapiens, UniProt Q6DHV7)
T2 construct: endogenous in cells; host or cells: HEK293
T2 sequence (Q6DHV7 1-355): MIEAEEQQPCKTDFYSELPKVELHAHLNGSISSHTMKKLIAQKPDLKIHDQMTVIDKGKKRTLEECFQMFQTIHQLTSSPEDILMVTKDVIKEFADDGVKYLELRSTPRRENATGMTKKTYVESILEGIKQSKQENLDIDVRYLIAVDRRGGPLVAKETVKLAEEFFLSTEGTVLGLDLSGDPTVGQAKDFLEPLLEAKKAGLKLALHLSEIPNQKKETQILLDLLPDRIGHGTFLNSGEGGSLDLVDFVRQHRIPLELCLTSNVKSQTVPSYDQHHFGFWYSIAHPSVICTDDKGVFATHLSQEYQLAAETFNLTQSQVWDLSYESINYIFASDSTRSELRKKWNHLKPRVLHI
Experimental: as §1, §2, §3, §4, §5, §6, §7, §8, §9, §10, §11, §12, §13, §14, §15, §16, §17, §18, §19, §20, §21, §22, §23, §24

SMG7 = biological target: T3, SMG7 (Homo sapiens, UniProt Q92540)
T3 construct: endogenous in cells; host or cells: HEK293
T3 sequence (Q92540 1-1137): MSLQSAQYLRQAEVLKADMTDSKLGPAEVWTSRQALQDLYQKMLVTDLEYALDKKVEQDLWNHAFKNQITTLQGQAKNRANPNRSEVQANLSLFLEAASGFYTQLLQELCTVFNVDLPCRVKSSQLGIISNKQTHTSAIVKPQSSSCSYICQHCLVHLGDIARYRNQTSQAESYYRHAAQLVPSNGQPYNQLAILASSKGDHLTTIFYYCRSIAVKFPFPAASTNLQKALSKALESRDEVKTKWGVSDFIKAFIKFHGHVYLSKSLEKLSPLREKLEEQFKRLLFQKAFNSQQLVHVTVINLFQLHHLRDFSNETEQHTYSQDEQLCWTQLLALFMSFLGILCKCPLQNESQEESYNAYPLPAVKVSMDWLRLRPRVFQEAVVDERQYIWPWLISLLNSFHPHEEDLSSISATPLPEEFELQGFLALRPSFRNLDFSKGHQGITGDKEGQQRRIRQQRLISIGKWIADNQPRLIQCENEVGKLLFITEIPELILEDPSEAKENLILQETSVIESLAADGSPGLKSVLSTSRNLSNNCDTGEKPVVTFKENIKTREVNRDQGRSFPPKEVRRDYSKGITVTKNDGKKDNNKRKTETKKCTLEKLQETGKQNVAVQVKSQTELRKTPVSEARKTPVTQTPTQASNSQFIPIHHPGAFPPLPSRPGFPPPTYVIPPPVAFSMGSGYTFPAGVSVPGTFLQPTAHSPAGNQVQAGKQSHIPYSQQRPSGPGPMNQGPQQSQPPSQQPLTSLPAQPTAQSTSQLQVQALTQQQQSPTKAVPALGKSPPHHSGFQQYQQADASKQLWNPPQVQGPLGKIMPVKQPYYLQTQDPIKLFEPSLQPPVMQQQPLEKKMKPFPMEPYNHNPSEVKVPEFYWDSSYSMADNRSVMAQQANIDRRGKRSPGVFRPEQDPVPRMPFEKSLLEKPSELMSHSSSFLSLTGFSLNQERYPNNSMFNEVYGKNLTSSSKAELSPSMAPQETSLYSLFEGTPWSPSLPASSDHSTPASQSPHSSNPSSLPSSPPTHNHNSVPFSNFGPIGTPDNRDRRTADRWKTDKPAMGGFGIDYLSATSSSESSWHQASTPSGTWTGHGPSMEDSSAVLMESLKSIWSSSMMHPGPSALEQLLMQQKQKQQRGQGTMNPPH
Experimental: as §1, §2, §3, §4, §5, §6, §7, §8, §9, §10, §11, §12, §13, §14, §15, §16, §17, §18, §19, §20, §21, §22, §23, §24

## O=C(O)c1cn(C2CC2)c2cc(N3CCNCC3)c(F)cc2c1=O [Ciprofloxacin]
TRIM26; read-out: ΔTm Rep. 1
  ΔTm at 70 µM: 3.54 °C
TRIM26; read-out: ΔTm Rep. 2
  ΔTm at 70 µM: 3.88 °C
ADAL; read-out: ΔTm Rep. 1
  ΔTm at 70 µM: 5.91 °C
ADAL; read-out: ΔTm Rep. 2
  ΔTm at 70 µM: 6.21 °C
SMG7; read-out: ΔTm Rep. 1
  ΔTm at 70 µM: 1.67 °C
SMG7; read-out: ΔTm Rep. 2
  ΔTm at 70 µM: 3.28 °C

From paper PMC12036814 (Angewandte Chemie (International Ed. in English), 2025)
